Results published in ChEMBL document CHEMBL1201862, “PubChem BioAssay data set” (2004).
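Interpolation was linear, between the two tested concentrations surrounding the appropriate level; five concentrations were tested over 48 hours in 96-well plates. At the GI50, growth is halved.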 Activity calls are given as the source filed them. Rule as the data show it: active = GI50 up to about 1.1 µM and inactive = higher.

Legend:
Test in all cases: DTP human tumour cell line panel, 48 h
HOP-62 = test system: HOP-62
RXF 631 = test system: RXF 631
RXF 393 = test system: RXF 393
SK-OV-3 = test system: SK-OV-3
M14 = test system: M14
HOP-92 = test system: HOP-92
UACC-257 = test system: UACC-257
OVCAR-8 = test system: OVCAR-8
SK-MEL-2 = test system: SK-MEL-2
SK-MEL-28 = test system: SK-MEL-28
U-251 = test system: U-251
HCC 2998 = test system: HCC 2998
786-0 = test system: 786-0
HCT-15 = test system: HCT-15
COLO 205 = test system: COLO 205
EKVX = test system: EKVX
ACHN = test system: ACHN
OVCAR-4 = test system: OVCAR-4
NCI-H226 = test system: NCI-H226
HL-60 = test system: HL-60
A549 = test system: A549
TK-10 = test system: TK-10
XF498 = test system: XF498
KM12 = test system: KM12
HCT-116 = test system: HCT-116
SNB-75 = test system: SNB-75
DLD-1 = test system: DLD-1
Malme-3M = test system: Malme-3M
NCI-H23 = test system: NCI-H23
CAKI-1 = test system: CAKI-1
SF-539 = test system: SF-539
KM-20L2 = test system: KM-20L2
M19-MEL = test system: M19-MEL
SNB-19 = test system: SNB-19
SR = test system: SR
OVCAR-3 = test system: OVCAR-3
LXFL 529 = test system: LXFL 529
RPMI-8226 = test system: RPMI-8226
SW-620 = test system: SW-620
IGROV-1 = test system: IGROV-1
K562 = test system: K562
SNB-78 = test system: SNB-78
DMS-273 = test system: DMS-273
SN12C = test system: SN12C
CCRF-CEM = test system: CCRF-CEM
OVCAR-5 = test system: OVCAR-5
LOX IMVI = test system: LOX IMVI
UO-31 = test system: UO-31
NCI-H460 = test system: NCI-H460
HT-29 = test system: HT-29
SK-MEL-5 = test system: SK-MEL-5
DMS-114 = test system: DMS-114
UACC-62 = test system: UACC-62
NCI-H522 = test system: NCI-H522
SF-268 = test system: SF-268
SF-295 = test system: SF-295
MOLT-4 = test system: MOLT-4
HOP-18 = test system: HOP-18
A498 = test system: A498

COc1c2c(c3c(c1C1OC(C)[C@@H](C)O1)CC(C)(C)O3)C(=O)c1ccccc1C2=O (stereo not given in full)
GI50 (HOP-62): > 100 µM (inactive) | GI50 (RXF 631): 9.91 µM (inactive) | GI50 (RXF 393): 28 µM (inactive) | GI50 (SK-OV-3): 13.9 µM (inactive) | GI50 (M14): 65 µM (inactive) | GI50 (HOP-92): 16.9 µM (inactive) | GI50 (UACC-257): > 100 µM (inactive) | GI50 (OVCAR-8): 34.3 µM (inactive) | GI50 (SK-MEL-2): > 100 µM (inactive) | GI50 (SK-MEL-28): 55.3 µM (inactive) | GI50 (U-251): 36.6 µM (inactive) | GI50 (HCC 2998): 76.2 µM (inactive) | GI50 (786-0): 72.9 µM (inactive) | GI50 (HCT-15): 43.1 µM | GI50 (COLO 205): 35.1 µM (inactive) | GI50 (EKVX): > 100 µM (inactive) | GI50 (ACHN): 40.5 µM (inactive) | GI50 (OVCAR-4): 42 µM (inactive) | GI50 (NCI-H226): > 100 µM (inactive) | GI50 (HL-60): 13.5 µM (inactive) | GI50 (A549): 73.3 µM (inactive) | GI50 (TK-10): > 100 µM (inactive) | GI50 (XF498): 41 µM (inactive) | GI50 (KM12): 45.7 µM (inactive) | GI50 (HCT-116): 42.7 µM (inactive) | GI50 (SNB-75): 46.5 µM (inactive) | GI50 (DLD-1): 36.1 µM (inactive) | GI50 (Malme-3M): 64.6 µM (inactive) | GI50 (NCI-H23): 48.2 µM (inactive) | GI50 (CAKI-1): 40.2 µM (inactive) | GI50 (SF-539): > 100 µM (inactive) | GI50 (KM-20L2): 29.2 µM (inactive) | GI50 (M19-MEL): 36.7 µM (inactive) | GI50 (SNB-19): > 100 µM (inactive) | GI50 (SR): 22.5 µM (inactive) | GI50 (OVCAR-3): 38.2 µM (inactive) | GI50 (LXFL 529): 23.1 µM (inactive) | GI50 (RPMI-8226): 20.6 µM (inactive) | GI50 (SW-620): 23.9 µM (inactive) | GI50 (IGROV-1): > 100 µM (inactive) | GI50 (K562): 25.4 µM (inactive) | GI50 (SNB-78): > 100 µM (inactive) | GI50 (DMS-273): 24.2 µM (inactive) | GI50 (SN12C): 35.6 µM (inactive) | GI50 (CCRF-CEM): 20.8 µM (inactive) | GI50 (OVCAR-5): > 100 µM (inactive) | GI50 (LOX IMVI): 15 µM (inactive) | GI50 (UO-31): 36.7 µM (inactive) | GI50 (NCI-H460): 37.6 µM (inactive) | GI50 (HT-29): 31.6 µM (inactive) | GI50 (SK-MEL-5): 56.8 µM (inactive) | GI50 (DMS-114): 37.4 µM (inactive) | GI50 (UACC-62): 34.9 µM (inactive) | GI50 (NCI-H522): > 10 µM (inactive) | GI50 (SF-268): 54.2 µM (inactive) | GI50 (SF-295): 65.2 µM (inactive)

Cc1cc(O)c2c(c1)C(=O)c1cc(O)cc(O)c1C2=O [EMODIN]
GI50 (HOP-62): 14.4 µM (inactive) | GI50 (RXF 631): 39.3 µM (inactive) | GI50 (RXF 393): 41 µM (inactive) | GI50 (SK-OV-3): 30.7 µM (inactive) | GI50 (M14): 21.4 µM (inactive) | GI50 (HOP-92): 14.4 µM (inactive) | GI50 (UACC-257): 28.1 µM (inactive) | GI50 (SK-MEL-2): 33.9 µM (inactive) | GI50 (SK-MEL-28): 25.4 µM (inactive) | GI50 (U-251): 24.7 µM (inactive) | GI50 (HCC 2998): 31.3 µM (inactive) | GI50 (HCT-15): 22.9 µM | GI50 (COLO 205): 19.8 µM (inactive) | GI50 (ACHN): 18.6 µM (inactive) | GI50 (OVCAR-4): 30.6 µM (inactive) | GI50 (NCI-H226): 20.1 µM (inactive) | GI50 (MOLT-4): 31 µM (inactive) | GI50 (HL-60): 26.9 µM (inactive) | GI50 (A549): 23 µM (inactive) | GI50 (TK-10): 39.4 µM (inactive) | GI50 (XF498): 26.1 µM (inactive) | GI50 (KM12): 20.5 µM (inactive) | GI50 (HCT-116): 24 µM (inactive) | GI50 (SNB-75): 32.6 µM (inactive) | GI50 (DLD-1): 23.3 µM (inactive) | GI50 (Malme-3M): 11 µM (inactive) | GI50 (NCI-H23): 14.9 µM (inactive) | GI50 (CAKI-1): 17.1 µM (inactive) | GI50 (KM-20L2): 40.8 µM (inactive) | GI50 (SNB-19): 31.8 µM (inactive) | GI50 (SR): 23.4 µM (inactive) | GI50 (LXFL 529): 24.4 µM (inactive) | GI50 (RPMI-8226): 17.7 µM (inactive) | GI50 (SW-620): 27.6 µM (inactive) | GI50 (SNB-78): 49.2 µM (inactive) | GI50 (DMS-273): 19.8 µM (inactive) | GI50 (SN12C): 20.5 µM (inactive) | GI50 (CCRF-CEM): > 61.8 µM (inactive) | GI50 (OVCAR-5): 39.4 µM (inactive) | GI50 (LOX IMVI): 15.9 µM (inactive) | GI50 (HOP-18): 3.94 µM (inactive) | GI50 (NCI-H460): 20.3 µM (inactive) | GI50 (HT-29): 33.7 µM (inactive) | GI50 (SK-MEL-5): 5.94 µM (inactive) | GI50 (DMS-114): 41.2 µM (inactive) | GI50 (A498): 21.3 µM (inactive) | GI50 (NCI-H522): 27.4 µM (inactive) | GI50 (SF-268): 22 µM (inactive) | GI50 (SF-295): 23.3 µM (inactive)
